58 compounds from ChEMBL document CHEMBL3272323, “1-Halobenzyl-1H-indazole-3-carboxylic acids. A new class of antispermatogenic agents” (1976) can be followed below.

Each structure is given as a SMILES string. Active and inactive are the calls of the source. No cut-off for these calls is given here.

In one test the test system is Rattus norvegicus. Kind of test: Antispermatogenic activity in po dosed Long-Evans rat assessed as reduction of testes weight administered as single dose measured after 5 days. The test is classed as functional. Particulars: Testis, 120 h, read-out: MED.
For `O=C(OC(CO)CO)c1nn(Cc2ccc(Cl)cc2)c2ccccc12`, the minimal effective dose came to 503 mg/kg.
Same read-out and setting: next, `O=C(OCC(O)CO)c1nn(Cc2ccc(Cl)cc2Cl)c2ccccc12` (stereo not drawn): 69 mg/kg; `O=C(O)c1nn(Cc2ccc(Cl)c(Cl)c2)c2ccccc12`: 448 mg/kg.
As for `O=C(O)Cc1nn(Cc2ccc(Cl)cc2)c2ccccc12`, the minimal effective dose came to 419 mg/kg.
With `O=C(OCC(O)CO)c1nn(Cc2ccc(Cl)cc2)c2ccccc12` (stereo not drawn), the minimal effective dose turned out to be 503 mg/kg.
On the same count and under the same terms, the result for `O=C(OCC(O)CO)c1nn(Cc2ccccc2Cl)c2ccccc12` (stereo not drawn) reads 503 mg/kg; that for `O=C(O)c1nn(Cc2ccc(Br)cc2Br)c2ccccc12`, 76.5 mg/kg; that for `O=C(O)c1nn(Cc2ccc(Cl)cc2)c2ccccc12`, 400 mg/kg.
`O=C(O)c1nn(Cc2cccc(Cl)c2)c2ccccc12`: the minimal effective dose came to 400 mg/kg.
On the same count and under the same terms, the result for `O=C(O)c1nn(Cc2ccc(Cl)cc2Cl)c2ccccc12` [LONIDAMINE] reads 56 mg/kg; that for `O=C(OCCO)c1nn(Cc2ccc(Cl)cc2)c2ccccc12`, 486 mg/kg.
With `O=C(O)c1nn(Cc2ccc(Br)cc2)c2ccccc12`, the minimal effective dose is 231 mg/kg.
Consider `O=C(O)c1nn(Cc2ccc(F)cc2)c2ccccc12`, for which the minimal effective dose came to 377 mg/kg.
Same read-out and setting: the result for `O=C(O)c1nn(Cc2cc(Cl)c(Cl)cc2Cl)c2ccccc12` reads 248 mg/kg; that for `O=C(OCC(O)CO)c1nn(Cc2cc(Cl)c(Cl)cc2Cl)c2ccccc12` (stereo not drawn), 300 mg/kg; that for `Cc1cc(Cl)ccc1Cn1nc(C(=O)O)c2ccccc21` [TOLNIDAMINE], 52 mg/kg.
`O=C(O)c1nn(Cc2ccc(I)cc2)c2ccccc12`: the minimal effective dose was found to be 528 mg/kg.
Same read-out and setting: the result for `Cc1ccccc1Cn1nc(C(=O)O)c2ccccc21` reads 186 mg/kg.
The same measure, in the same setting: the result for `O=C(O)c1nn(Cc2ccccc2Cl)c2ccccc12` reads 200 mg/kg; that for `NC(=O)c1nn(Cc2ccc(Cl)cc2)c2ccccc12`, 399 mg/kg.
The same measure, in the same setting: the result for `Cc1ccc(Cn2nc(C(=O)O)c3ccccc32)c(C)c1` [XINIDAMINE] reads 101 mg/kg.

The next test concerns Rattus norvegicus. Kind of test: Antispermatogenic activity in Long-Evans rat assessed as reduction of testes weight at a dose equimolecular to 400 mg/kg of 1-(4-chlorobenzyl)-1H-indazole-3-carboxylic acid administered orally as single dose measured after 5 days. The test is classed as functional, organism-based. On the set-up: dose 400 mg/kg. Particulars: Testis.
As for `CCOC(=O)c1nn(Cc2ccc(Cl)cc2)c2ccccc12`, the result was inactive.
In the case of `O=C(O)c1nn(Cc2ccc(Cl)c3ccccc23)c2ccccc12`, the outcome was inactive.
Take `Clc1ccc(Cn2nc(-c3nnn[nH]3)c3ccccc32)cc1`: the result was inactive.
With `O=C(O)c1nn(Cc2cccc(C(F)(F)F)c2)c2ccccc12`, the result was inactive.
On the same count and under the same terms, the result for `Sc1nn(Cc2cccc(Cl)c2)c2ccccc12` reads “inactive”; that for `O=C(O)c1cn(Cc2ccc(Cl)cc2)c2ccccc12`, “inactive”; that for `O=C(O)c1ccccc1NCc1cccc2ccccc12`, “inactive”.
Still for that read-out and setting: the result for `CC(=O)c1nn(Cc2ccc(Cl)cc2)c2ccccc12` reads “inactive”; that for `N#Cc1nn(Cc2ccc(Cl)cc2)c2ccccc12`, “inactive”.
For the compound `N#Cc1ccc(Cn2nc(C(=O)O)c3ccccc32)cc1`, the outcome was inactive.
Same read-out and setting: the result for `O=C(O)c1nn(-c2ccc(Cl)cc2)c2ccccc12` reads “inactive”; that for `Cc1cc(Cl)ccc1Cn1nc(-c2nnn[nH]2)c2ccccc21`, “inactive”.
The same measure, in the same setting: next, `O=C(O)c1nn(Cc2c(Cl)cccc2Cl)c2ccccc12`: “inactive”; `COC(=O)c1nn(Cc2ccc(Cl)cc2)c2ccccc12`: “inactive”; `Cc1nn(Cc2ccc(Cl)cc2)c2ccccc12`: “inactive”.
Same read-out and setting: next, `O=C(NCCCCCCCCNC(=O)C(Cl)Cl)C(Cl)Cl`: “inactive”; `CS(=O)(=O)c1ccc(Cn2nc(C(=O)O)c3ccccc32)cc1`: “inactive”; `Clc1ccc(Cn2nc(-c3nnn[nH]3)c3ccccc32)c(Cl)c1`: “inactive”.
As for `COc1ccc2c(c1)c(C(=O)O)nn2Cc1ccc(Cl)cc1`, the outcome was inactive.
Same read-out and setting: next, `O=C(O)c1cc2ccccc2n1Cc1ccc(Cl)cc1`: “inactive”; `OCc1nn(Cc2ccc(Cl)cc2)c2ccccc12`: “inactive”.
Same read-out and setting: next, `O=C(c1ccccc1)c1cccc(Cn2nc(C(=O)O)c3ccccc32)c1`: “inactive”; `Clc1ccc(CCn2nc(-c3nnn[nH]3)c3ccccc32)cc1`: “inactive”.
Still for that read-out and setting: next, `O=C(O)c1nn(Cc2ccc(S(=O)(=O)c3ccccc3)cc2)c2ccccc12`: “inactive”.
Take `O=C(O)c1nn(S(=O)(=O)c2ccc(Cl)cc2)c2ccccc12`: the result was inactive.
With `O=C(O)c1nn(Cc2ccc(Cl)cc2)c2ccc(Cl)cc12`, the outcome was inactive.
Take `Cc1cccc(Cn2nc(C(=O)O)c3ccccc32)c1`: the result was inactive.
As to `Clc1ccc(Cn2ncc3ccccc32)cc1`, the result was inactive.
Same read-out and setting: next, `Nc1nn(Cc2ccc(Cl)cc2)c2ccccc12`: “inactive”; `O=C(O)c1ccccc1NCc1ccc(Cl)cc1`: “inactive”.
Regarding `O=C(O)c1nn(C(=O)c2ccc(Cl)cc2)c2ccccc12`, the outcome was inactive.
On the same count and under the same terms, next, `O=C(O)CCc1nn(Cc2ccc(Cl)cc2)c2ccccc12`: “inactive”.
For `Cc1ccc2c(c1)c(C(=O)O)nn2Cc1ccc(Cl)cc1`, the result was inactive.
Same read-out and setting: next, `Cc1ccc(Cn2nc(C(=O)O)c3ccccc32)cc1`: “inactive”; `O=C(O)c1nn(Cc2ccc(Cl)cc2)c2ccc(O)cc12`: “inactive”; `Cc1c(C(=O)O)c2ccccc2n1Cc1ccc(Cl)cc1`: “inactive”.
Turning to `O=C(Cn1nc(C(=O)O)c2ccccc21)c1ccc(Cl)cc1`, the result was inactive.
